Legend:
blood-glucose = settings: swine, enema containing 100U insulin with 1-minute 20 kHz ultrasound
Procedure: Both female and male Yorkshire pigs between 45-80 kg in weight were used for one study based on the availability of sex from the vendor. […] Before every experiment, the animal was fasted overnight. Sedation was induced with intramuscular injection of Telazol® tiletamine, 5 mg/kg (available from Zoetis, Inc., Florham, N.J.), xylazine 2 mg/kg, and atropine 0.04 mg/kg. The animal was then intubated and sedation maintained with isoflurane (1-3% inhaled).
In addition to the preparation noted above, a central venous catheter was placed in the femoral vein using the Seldinger technique to allow for frequent blood sampling. […] A real-time readout was achieved using a TRUEtrack® blood glucose meter (available from Nipro Diagnostics Inc., Fort Lauderdale, Fla.). The remaining blood sample was saved in a blood collection tube with sodium fluoride and ethylenediaminetetraacetic acid (EDTA) to minimize further glucose metabolism. All data shown represents the blood-glucose values quantified from the blood collection tubes, which was evaluated in a blinded fashion.
The blood-glucose was monitored for at least 40 minutes, depending on the experiment's effect on blood-glucose. When necessary, hypoglycemia was corrected with intravenous boluses of 50% dextrose (only needed when ultrasound treatment took place). […]

[1] = parameters: species or system Yorkshire pigs; settings: both, Yorkshire, pig, in vivo
Procedure: Before every experiment, the animal was fasted overnight.
In step 1402, the subject's rectum is cleared, for example, with a tap water enema. In the study, a clean rectum was confirmed by colonoscopy prior to treatment.
In step 1404, a medicated enema is instilled.
In step 1406, ultrasound is applied. In the study, Control and Treatment tests were performed on separate days. For Treatment tests, the ultrasound treatment was applied using a 20 kHz horn for 2 minutes at a 50% duty cycle at an intensity of 7.5 W/cm^2. For Control tests, the ultrasound probe was inserted into the colon, but not turned on (n=16).
In step 1408, the tissue is biopsied for further assessment. Colonic areas treated with ultrasound were biopsied using endoscopic biopsy forceps (available from, e.g., US Endoscopy, Mentor, Ohio) for drug delivery evaluation as well as histological analysis (n=13).
Each point represents one biological replicate (n=16 for Control, n=13 for Treatment).
Tissue was ground and mixed with phosphate buffered saline and precipitated with 10% trichloroacetic acid. The resulting supernatant was extracted with ethyl acetate. This extract was dried with anhydrous sodium sulfate, transferred to a glass tube, and evaporated to dryness under nitrogen. […] Finally, the sample was allowed to cool to room temperature and analyzed by GC/MS. […]

[2] = system: dextran sodium sulfate (DSS)-induced acute colitis; assay: Dextran sodium sulfate-induced murine colitis model, mesalamine enema with radial UMGID; format: in vivo, C57BL/6 mice
Description: Therefore, improvement in disease indices in this model as a result of ultrasound treatment would underscore the impact of UMGID. Given the colonic anatomy and the often circumferential nature of colitis involvement, it was hypothesized that radial UMGID would be most beneficial so as to direct the treatment over the largest area of inflamed tissue. […] The two bumps shown have a diameter of 3 mm and enhance radial ultrasound emission. […] Fifteen-week old, female C57BL/6 mice were purchased from Charles River Laboratories (Wilmington, Mass.) for the induction and treatment of dextran sodium sulfate (DSS)-induced colitis. Five animals were utilized per group. […] Each cage (group) was used as it was received and randomly assigned to experimental groups by the researchers performing the work. On day 1, blood was drawn from all mice and an initial weight of each animal was taken. Colitis was induced with 40-50 kDa dextran sulfate sodium salt (DSS) (available from, e.g., Affymetrix Inc., Santa Clara, Calif.). Starting on day 1, a 3% w/w DSS solution was administered in drinking water ad libitum. On days 3 and 5, the drinking solution was replaced with fresh DSS solution. […] The animals were monitored daily for weight, fecal consistency, and for the presence of fecal occult blood using Hemoccult cards (Beckman Coulter, Pasadena, Calif.). Fecal consistency and the presence of blood was scored based on previously published protocols. Specifically, stool consistency was scored as follows: (1) normal pellet-like feces, (2) pellet of stool easily crushed, (3) soft, watery stool with granules present, or (4) diarrhea. […] Animals with negative hemoccult results were scored (1). […] On day 14, a final weight was taken and fecal score assessed. […] Scores were determined according to previously published protocols with slight modification as follows in TABLE 3: Each tissue cross-section present on the microscope slide (n=2-6) was scored individually between 0-4 with a corresponding percentage involvement (rounded to the nearest quartile). […]

[3] = Effect of sonication on molecular structure (1H NMR); format: physicochemical; settings: 20 kHz ultrasound at highest intensity, 4 mg/mL in deuterated DMSO
Procedure: Three biological replicates were performed. Unsonicated samples were used as the control. A Varian 500 (1H, 500 MHz) spectrometer was used to record 1H NMR spectra, then processed using Mnova NMR software (available from Mestralab Research, A Coruña, Spain). The 1H NMR spectra were referenced with residual non-deuterated solvent shifts (DMSO-d5=2.5 ppm). All shifts are reported in ppm. Note the disappearance of the volatile internal tetramethylsilane (TMS) standard after ultrasound treatment, which was carried out in an uncapped vial.
Deuterium exchange occurs as labile protons on the analyte exchange with the deuterated solvent in which it is dissolved. Replacement of protons by deuterium results in loss of signal, shown either as a reduction in the integration fractions or disappearance of the peak altogether. Other indications of deuterium exchange include a slight broadening of peak shape, a shift in peak location, and slight change in J coupling values.

colon tissue = assay: Ex vivo delivery of radiolabeled permeants in Franz diffusion cells, colon; settings: colonic tissue, ultrasound treatment, on average
Procedure: Solutions of the four compounds at a concentration of 1 mg/mL were prepared with a radiolabel content ranging from about 0.001% to about 2.5% depending on the stock solution's radiolabel content.
GI tissue (e.g., tongue, esophagus, stomach, intestine, and colon tissue) from Yorkshire pigs was procured within 20 minutes of animal euthanization and stored at about 4° C. Drug delivery testing took place within 6 hours of euthanization. Upon delivery, the fresh porcine tissue was washed with PBS and excess fat was carefully dissected away. With the exception of tongue tissue, the full thickness of the tissue was used for testing. The tissue was sectioned into approximately 2 cm-by-2 cm pieces and kept hydrated with PBS. The variability in thickness of tongue tissue prevented mounting of the entire thickness in the diffusion chambers. […]
Low-frequency (e.g., less than 100 kHz) ultrasound was utilized and administered directly to tissue and compared to controls consisting of untreated tissue. Delivery efficacy was assessed by quantifying the delivery of radiolabeled permeants into and through tissue utilizing Franz diffusion cells. […] Unless otherwise noted, delivered quantities represent the total amount of permeant delivered over this area. […]

porcine small intestine = assay: Permeability in Side-Bi-Side diffusion cells; format: in vitro ADME
Procedure: Side-Bi-Side™ diffusion cells (available from PermeGear, Hellertown, Pa.) with inner diameters of 9 mm were used to determine permeability. Tissue was placed between the two chambers and clamped together with the luminal side facing the donor chamber. Stir bars were added to both the donor and receiver chambers and agitated using the Bell-ennium™ 9-position magnetic stirrer.
The donor solution consisted of 2 μCi/mL 3H-glucose and 2 μCi/mL 14C-labeled inulin. Each donor chamber was filled with 3 mL of this solution and the receiver solution was filled with 3 mL fresh PBS. At 10-minute intervals over the course of one hour,100 μL samples were taken from the receiver chamber and replaced with an equal volume of fresh PBS. Then, 15 mL of Hionic Fluor was added to these samples and analyzed for tritiated decomposition and 14C decomposition. Seven repeats were performed for the Control samples, and 17 for the Treated samples. […]
The only unknown in Equation 3 is the pore size in λ. Therefore, P may be determined experimentally for each permeant to estimate the membrane pore size. […]
where A is the area of the membrane exposed to the permeant, Ci is the concentration of the permeant in the donor chamber, and dQi/dt is the slope of the plot of the permeant quantity in the receiver chamber versus time after the lag-phase. […]

For insulin aspart, which Blood-glucose response (blood-glucose) is on record?
Its Blood-glucose response is “robust hypoglycemic response”.

With `Nc1ccc(O)c(C(=O)O)c1` [mesalamine, 5-aminosalicylic acid] as the molecule, how does the “Drug content in tissue biopsies (limit of detection)” value [1] read?
Its value is less than 50 ng/g tissue.

And the “Increase in delivery to tissue biopsies using ultrasound compared to tissue not treated” value [1]?
The value was 22.4 fold.

And the “Total fecal score on day 14” value ([2]; mesalamine enema alone QD)?
The value was “significantly elevated”.

What about the “Total fecal score on day 14” value ([2]; mesalamine enema with ultrasound treatment QD) of the same molecule?
Its value is “below 4”.

And the “Total fecal score on day 14” value ([2]; mesalamine enema with ultrasound treatment QOD)?
The value was “below 4”.

And the “Molecular structure / chemical stability after sonication (1H NMR)” value [3]?
The value was “chemical stability”.

What does the source list for inulin?
Amount in the tissue compared to that in the receiver chamber (colon tissue): 90 fold; Permeability (porcine small intestine; tissue not treated with ultrasound): 1.36e-05 ± 6.77e-06 cm/min; Average permeability (porcine small intestine; ultrasound treated samples, 20 kHz for 2 minutes at 50% duty cycle): 2.94e-05 ± 1.36e-05 cm/min

Reference: patent publication US20220118170A1, “SYSTEMS, APPARATUS, AND METHODS FOR ADMINISTERING A SUBSTANCE” (Massachusetts Institute of Technology, priority 2015, published 2022)
